Values quoted from earlier work as cited in patent US10828380B2, “Conjugate of polysarcosine and NIR contrast agent for photoacoustic imaging” (CANON KABUSHIKI KAISHA, priority 2015, dated 2020).

**Q.** Which half-life in blood does the source give for `CC1(C)C(/C=C/C=C/C=C/C=C2/N(CCCCS(=O)(=O)[O-])c3ccc4ccccc4c3C2(C)C)=[N+](CCCCS(=O)(=O)[O-])c2ccc3ccccc3c21.[Na+]` [ICG, indocyanine green] here?
**A.** about several minutes
